Experiments:
Assay in all cases: Antimicrobial action test (MIC)
Format in all cases: cell-based
Microsporum gypseum = tested on: Microsporum gypseum
Excerpt: (§1) Examples (Table 1): (MIC—minimum inhibitory concentration)
(§2) Examples: (MIC=minimum inhibitory concentration)

Staphylococcus sobrinus = tested on: Staphylococcus sobrinus
Excerpt: as §1, §2

Staphylococcus mutans = tested on: Staphylococcus mutans
Excerpt: as §1, §2

Staphylococcus aureus = tested on: Staphylococcus aureus
Excerpt: as §1, §2

[1] = tested on: Trichophyton mentagrophytes
Excerpt: as §1, §2

Malassezia furfur = tested on: Malassezia furfur
Excerpt: as §1, §2

Microsporum canis = tested on: Microsporum canis
Excerpt: as §1, §2

[2] = tested on: Trichophyton schoenleinii
Excerpt: as §1, §2

Trichophyton rubrum = tested on: Trichophyton rubrum
Excerpt: as §1, §2

Selenomonas artemidis = tested on: Selenomonas artemidis
Excerpt: as §1, §2

Epidermophyton floccosum = tested on: Epidermophyton floccosum
Excerpt: as §1, §2

Porphyromonas gingivalis = tested on: Porphyromonas gingivalis
Excerpt: as §1

Measured: MIC (minimum inhibitory concentration)

cyclodextrin [pure cyclodextrin]
>10000 ppm: all assays above

Source: patent publication US20060210658A1, “Processes for obtaining (-)-guaiol and the use thereof” (priority 2000, published 2006)
